Format in all cases: functional
The subject of assay [1] is Aspergillus fumigatus. Nature of the assay: Minimum inhibitory concentration against Aspergillus fumigatus.
Assay [2] concerns Candida albicans. Description: Minimum inhibitory concentration against 41 strains of C. albicans; Range is 0.25-1.0 ug/mL.
Assay [3] relates to Candida albicans. Description: Minimum inhibitory concentration against Candida albicans (CAF2).
For assay [4], the species on record is Mus musculus. Nature of the assay: Minimum inhibitory concentration against Candida albicans (CCH442) tested in mice.
Assay [5] is filed under the species Rattus norvegicus. Nature of the assay: Minimum inhibitory concentration against Candida albicans (CCH442) tested in rats.

Structures are written as SMILES. In brackets after ≈: the same amount, converted by molar mass. Starred links: 1 amine or outer side, 2 acyl side, 3 side chain; linkers in the order of their positions; H or OH if unused. Positions of bridges follow the written chain, without caps; N, C: chain ends. Non-standard residues stand in square brackets, D forms with d. Residues, ends and D or L forms follow the SMILES beside them. *: point of attachment. pTerphenylCO(4''-OnC5H11) = CCCCCOc1ccc(-c2ccc(-c3ccc(C(=O)*)cc3)cc2)cc1; X1 = NCC(=O)Nc1cc(CC[C@H](N[*:1])C(=O)[*:2])ccc1O; X2 = NC(N)=N[C@H]1CC(C(=O)[*:2])N([*:1])C1; Hyp = O=C(O)[C@@H]1C[C@@H](O)CN1; Orn = NCCC[C@H](N)C(=O)O

For orientation: MIC means the lowest concentration that inhibits growth of the organism. Low values mean greater potency, high ones weaker potency. For the compound `CCCCCOc1ccc(-c2ccc(-c3ccc(C(=O)N[C@H]4CCCNC(=O)C5C[C@H](N=C(N)N)CN5C(=O)[C@H]([C@@H](C)O)NC(=O)[C@H](CCc5ccc(O)c(NC(=O)CN)c5)NC(=O)[C@@H]5C[C@@H](O)CN5C(=O)[C@H]([C@@H](C)O)NC4=O)cc3)cc2)cc1` (stereo not given in full) ({pTerphenylCO(4''-OnC5H11)}-[Orn]T[Hyp][X1]T[X2]; lactam 1-C), the MIC in assay [1] was above 100 µg/mL; in assay [2] it was 0.25 µg/mL (≈ 0.213 µM); in assay [3] it was 0.25 µg/mL (≈ 0.213 µM); in assay [4], 0.5 µg/mL (≈ 0.425 µM); in assay [5], 0.5 µg/mL (≈ 0.425 µM).

Turning to `C[C@@H]1[C@H](O)[C@@H](C)/C=C/C=C/C=C/C=C/C=C/C=C/C=C/[C@H](O[C@@H]2O[C@H](C)[C@@H](O)[C@H](N)[C@@H]2O)C[C@@H]2O[C@](O)(C[C@@H](O)C[C@@H](O)[C@H](O)CC[C@@H](O)C[C@@H](O)CC(=O)O[C@H]1C)C[C@H](O)[C@H]2C(=O)O` [AMPHOTERICIN B], the MIC in assay [1] is 0.78 µg/mL (≈ 0.844 µM); in assay [3], 0.5 µg/mL (≈ 0.541 µM); in assay [4] it was 1 µg/mL (≈ 1.08 µM); in assay [5], 1 µg/mL (≈ 1.08 µM).

With `OC(Cn1cncn1)(Cn1cncn1)c1ccc(F)cc1F` [FLUCONAZOLE], the MIC in assay [5] came to 0.19 µg/mL (≈ 0.62 µM).
